The record followed here is patent publication US20030109529A1, “Use of s-triazines for treating Apicomplexan parasitic infections” (priority 1999, published 2003).

The subject of experiment [1] is wild type Plasmodium falciparum. The experiment can be described thus: In vitro red blood cell culture infected with wild type Plasmodium falciparum, percent RBCs infected. Type of experiment: cell-based. Particulars: for effectiveness compared with chloroquine (text to Table 2): 2.0-0.02 μM. As to the method: The in vitro method used to test the anti-malarial effectiveness of various s-triazines was adapted from Trager, 1994, Methods in Cell Biology Vol 45:7-26.
(§1) Briefly, a red blood cell suspension at a malarial (wild type Plasmodium falciparum) infection rate of approximately 1% was added to each well of a 96 well micro titer plate. The test compound was added to the cultures at final concentrations of 2.0, 0.2 or 0.02 μM. and incubated in an environment of 5% CO2, 5% O2 and 90% N2 at 37° C. Every 24 hrs the dish was removed, 100 μl of spent medium removed and 100 μl of fresh, compound containing-medium was added back to each well. This procedure was repeated daily.
(§2) At 48 hrs and again at 96 hrs, blood smears were made from each well and 500 Red Blood Cells (RBCs) were counted and inspected for malarial infection. The percent infection rate was then determined for each experimental condition tested.
(§3) Malaria parasite (P. falciparum) was grown in culture as described previously. At 48 hours and 96 hours of treatment, red blood cells were taken from culture and the percent red blood cells infected with the parasite was determined by microscopic examination.
The data in Table 2 represent percent red blood cell (RBC) infection rate at 48 hrs of treatment with the antimalarial test compound. Control cultures were 35% RBC infected.

A further experiment concerns Plasmodium berghi. The experiment can be described thus: In vivo evaluation against Plasmodium berghi in Lewis rats, intravenous treatment. Further details: species or system rat. Particulars: 20 mg/kg I.V., 24 and 48 hrs. As for the experimental part: In vivo testing was performed using juvenile female Lewis rats. Rats were inoculated intraperitoneally with 30,000,000 Plasmodium berghi infected RBCs. Rats were bled daily from the tail vein and, when parasitemia reached 1-3%, therapy was begun.
Blood smears were obtained at 24 and 48 hrs. The percent RBCs infected was then calculated after counting and inspecting 500 RBCs for each rat.

The test system of experiment [2] is mefloquine resistant P. falciparum (Mfl res). The experiment can be described thus: In vitro RBC culture, mefloquine resistant P. falciparum. The experiment is classed as cell-based, Plasmodium falciparum. As for the experimental part: as §1, §2
The procedure set forth in Example 1 is utilized for testing the effectiveness of mefloquine and atrazine against mefloquine-resistant P. falciparum.
as §3

The test system of experiment [3] is multi-drug resistant P. falciparum (MDR). The experiment can be described thus: In vitro RBC culture, multi-drug resistant P. falciparum. Type of experiment: cell-based, Plasmodium falciparum. Particulars: multidrug-resistant, 96 hrs of treatment, 0.02 μM; control 25. As to the method:
as §1, §2, §3

For experiment [4], the system named is chloroquine resistant P. falciparum (Clq res). The experiment can be described thus: In vitro RBC culture, chloroquine resistant P. falciparum. Type of experiment: cell-based, Plasmodium falciparum.
The test system of experiment [5] is yeast transfected but not sensitive to antifolate antimalarials (folate insensitive). The experiment can be described thus: Yeast assay for antifolate activity, folate insensitive yeast. Type of experiment: cell-based, Saccharomyces cerevisiae. The conditions noted are these: 48 hours of treatment. As to the method: (§4) We have established a in vitro yeast assay model for determining sensitivity to antifolate anti-malarials.
(§5) Saccharomyces cerevisiae was grown in culture and after 48 hours of treatment as described below the growth of the yeast was determined. Control (i.e., yeast grown with no treatment) is considered to be 100% growth. Drug treatment was then related to the controls as a percent of control growth. S. cerevisiae types tested included wild type yeast, yeast made sensitive to antifolate antimalarials by transfecting yeast with malarial dihydrofolate reductase (folate sensitive or folate sen), yeast transfected but not sensitive to antifolate antimalarials (folate insensitive or folate insen).

For a further experiment, the system named is P. falciparum. The experiment can be described thus: Isobologram analysis of chloroquine and atrazine in vitro against P. falciparum. The experiment is classed as cell-based, Plasmodium falciparum. The conditions noted are these: each drug alone at its ID50, or combinations of the stated fractions of each ID50. As for the experimental part:
Drugs can interact in additive, antagonistic or synergistic manner. See Berenbaum, J. Infect. Dis., 137:122-130, 1978. The isobologram assay permits determination of the type of interaction that occurs between drugs of interest. The ID50, or […], for both drugs was calculated.
Next, the drugs were tested in vitro at the ID50 for each drug alone and various combinations of drugs as described below:
These combinations of drugs were tested in vitro against P. falciparum and the data analyzed.

Another experiment has as its system P. berghei. The experiment can be described thus: In vivo efficacy against P. berghei in rats, single oral dose. Set-up: species or system rat. Particulars: single oral dose (Chloroquine 20 mg/kg, Atrazine 100 mg/kg) 4 h after inoculation. As for the experimental part: Rats weighing 60-70 gms were inoculated with P. berghei infected rat red blood cells. […] Blood was obtained 4 days and 11 days later and parasitemia assessed using light microscopy of blood smears. The percent parasitemia (i.e., the presence of parasites in the blood) was then determined for each group and the data are summarized in the table below: […]

The test system of experiment [6] is yeast transfected with malarial dihydrofolate reductase (folate sensitive). The experiment can be described thus: Yeast assay for antifolate activity, folate sensitive yeast. Particulars: 48 hours of treatment. Type of experiment: cell-based, Saccharomyces cerevisiae. As to the method:
as §4, §5

Experiment [7] relates to antifolate-resistant P. falciparum. The experiment can be described thus: In vitro RBC culture, antifolate-resistant P. falciparum. The experiment is classed as cell-based, Plasmodium falciparum. The conditions noted are these: Example 4, 48 hrs or 96 hrs after treatment. As for the experimental part: as §1, §2
The procedure set forth in Example 1 is utilized for testing the effectiveness of triazine and atrazine against antifolate-resistant P. falciparum.

Where [8] appears, read: 48 hrs of treatment, 0.02 μM, control 35%.
Setting [9] is: 48 hrs of treatment, 0.2 μM, control 35%.
Setting [10] is: 48 hrs of treatment, 2.0 μM, control 35%.

`CCNc1nc(NC(C)C)nc(SC)n1` [ametryn, 2-ethylamino-4-isopropylamino-6-thiomethoxy-s-triazine]: the “Red Blood Cell Infection Rate” value worked out at 20% in experiment [1] (setting [8]), 11% in experiment [1] (setting [9]) and 10% in [1] (setting [10]). The “effectiveness compared with chloroquine (text to Table 2)” value (“effectiveness compared with chloroquine” below) in experiment [1] (48 hrs of treatment) is given as “less effective”.

Regarding `CCN(CC)CCCC(C)Nc1ccnc2cc(Cl)ccc12` (centres unmarked) [chloroquine, reference compound], the “in vivo percentage of RBCs infected with P. berghi compared to non-treated controls (FIG. 6)” value in the experiment on Plasmodium berghi is listed as “disease dramatically reduced”. Besides, the “Red Blood Cell Infection Rate” value in experiment [2] (mefloquine-resistant, 96 hrs of treatment, 0.02 μM, control 24) came to 13%; in [3] it was 22%; in [4] (chloroquine-resistant, 96 hrs of treatment, 0.02 μM, control 28), 28%; in experiment [1] (setting [8]) it was 4%; in [1] (setting [9]), 0%; in [1] (setting [10]), 0%. In [1] (wild type, 96 hrs of treatment, 0.02 μM, control 18), the “Red Blood Cell Infection Rate” value was 3%. The “percentage of RBCs infected with chloroquine-resistant P. falciparum” value in [4] (Example 2, 48 hrs or 96 hrs after treatment) is recorded as “significantly higher level of RBCs being infected”. For the same compound, the “yeast growth (FIG. 7)” value in [5] and in experiment [6] was “Neither chloroquine (Clq) nor atrazine affected growth” in each case. Moreover, the “Percent Growth Inhibition” value in the experiment on P. falciparum is given as 60%. In addition, the “Parasitemia Day 4” value in the experiment on P. berghei (ethanol control 24%) stood at 5.8%. For the same compound, in the experiment on P. berghei (ethanol control 42%), the “Parasitemia Day 11” value was 11%.

As to `CCNc1nc(Cl)nc(NC(C)(C)C#N)n1` [cyanazine, 2-[[4-chloro-6-(ethylamino)-s-triazin-2-yl]amino]-2-methyl propionitrile], the “Red Blood Cell Infection Rate” value in [1] (setting [8]) came to 18%; in [1] (setting [9]), 17%; in experiment [1] (setting [10]), 16%. Moreover, in experiment [1] (48 hrs of treatment), the “effectiveness compared with chloroquine” value is given as “less effective”.

As for `OC(c1cc(C(F)(F)F)nc2c(C(F)(F)F)cccc12)C1CCCCN1` (centres unmarked) [mefloquine, reference compound], the “percentage of RBCs infected with mefloquine-resistant P. falciparum” value in [2] (Example 3, 48 hrs or 96 hrs after treatment) is reported as “significantly higher level of RBCs being infected”.

Turning to `CC(C)Nc1nc(Cl)nc(NC(C)C)n1` [propazine, 2-chloro-4,6-di(isopropylamino)-s-triazine], the “Red Blood Cell Infection Rate” value in experiment [1] (setting [8]) amounted to 5%; in experiment [1] (setting [9]), 1%; in [1] (setting [10]) it was 1%. Also, the “effectiveness compared with chloroquine” value in experiment [1] (48 hrs of treatment) is listed as “substantially similar in effectiveness as chloroquine”.

Take `CCNc1nc(Cl)nc(NCC)n1` [simazine, 2-chloro-4,6-di(ethylamino)-s-triazine]: the “Red Blood Cell Infection Rate” value in experiment [1] (setting [8]) was found to be 3%; in experiment [1] (setting [9]), 0%; in [1] (setting [10]), 0%. The “effectiveness compared with chloroquine” value in [1] (48 hrs of treatment) is on record as “substantially similar in effectiveness as chloroquine”.

With `c1ncncn1` [triazine], in [7], the “percentage of RBCs infected with antifolate-resistant P. falciparum” value was “significantly higher level of RBCs being infected”.
